Data from US9987264B2, “Method and composition for treating a serotonin receptor-mediated condition” (Vanda Pharmaceuticals Inc., priority 2007, dated 2018).

How the values were obtained:
human 5HT2A receptor = human 5HT2A receptor (Homo sapiens, UniProt P28223); test: radioligand binding study, human 5HT2A receptor
Description: In a radioligand binding study, 4-[3-[4-(6-fluoro-1,2,-benzisoxazol-3-yl)-1-piperidinyl]propoxy]-3-methoxy-benzoic acid had the following activity against the human 5HT2A receptor: […]

[1] = DMPK studies, brain radioactivity after [14C]-labelled compound; assay type: in vivo; settings: rats treated with [14C]-labelled compound
Description: 4-[3-[4-(6-fluoro-1,2,-benzisoxazol-3 -yl)-1-piperidinyl]propoxyl]-3-methoxy-benzoic acid appears not to cross the blood-brain barrier. Specifically, in DMPK studies using rats treated with [14C] […] Therefore, 4-[3-[4-(6-fluoro-1,2,-benzisoxazol-3-yl)-1-piperidinyl]propoxyl]-3-methoxy-benzoic acid is particularly useful in conditions that are not mediated, to a substantial degree, by receptors in the brain.

platelet rich plasma = test: platelet aggregation assay (ADP-induced, serotonin-potentiated); assay type: cell-based, albino rabbits; settings: Oryctolagus cuniculus
Description: In this assay, platelet rich plasma was obtained from albino rabbits. Platelet aggregation was induced in the presence of 3 μM adenosine diphosphate (ADP) and was potentiated by the addition of 10 μM serotonin. 4-[3-[4-(6-fluoro-1,2,-benzisoxazol-3-yl)-1-piperidinyl]propoxyl]-3-methoxy-benzoic acid inhibited the platelet aggregation in the presence of serotonin within 5 minutes, by 30, 50, 60, and 79% at the concentrations of 6 μM, 60 μM, 0.6 mM, and 1 mM, respectively.

human 5HT2A receptor, sequence (P28223 whole entry): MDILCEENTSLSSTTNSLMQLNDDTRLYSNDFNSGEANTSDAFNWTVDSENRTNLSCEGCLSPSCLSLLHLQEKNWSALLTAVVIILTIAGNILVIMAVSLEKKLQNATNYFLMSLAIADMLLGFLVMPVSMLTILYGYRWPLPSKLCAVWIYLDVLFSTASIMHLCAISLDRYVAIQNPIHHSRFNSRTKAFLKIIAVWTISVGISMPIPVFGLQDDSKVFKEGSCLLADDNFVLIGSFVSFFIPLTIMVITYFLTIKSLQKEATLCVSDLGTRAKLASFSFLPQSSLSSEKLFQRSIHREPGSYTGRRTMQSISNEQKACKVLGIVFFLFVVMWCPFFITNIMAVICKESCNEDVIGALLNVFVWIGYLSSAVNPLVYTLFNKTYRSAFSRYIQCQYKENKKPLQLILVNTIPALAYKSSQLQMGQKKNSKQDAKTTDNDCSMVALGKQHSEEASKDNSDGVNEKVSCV

Compound `COc1cc(C(=O)O)ccc1OCCCN1CCC(c2noc3cc(F)ccc23)CC1` [4-[3-[4-(6-fluoro-1,2,-benzisoxazol-3-yl)-1-piperidinyl]propoxy]-3-methoxy-benzoic acid] has an IC50 (human 5HT2A receptor) of 13.7 nM, a Ki (human 5HT2A receptor) of 3.91 nM and an inhibition at 0.03 µM (human 5HT2A receptor) of 66%. For the same compound, the nH (human 5HT2A receptor) was 1.05 +/− .091, the “radioactivity concentrations in the brain” value [1] was “none of the animals had measurable radioactivity concentrations in the brain” and the inhibition at 6 µM (platelet rich plasma; 5 min, 6 μM, 3 μM ADP + 10 μM serotonin, within 5 minutes) was 30%. For the same compound, the inhibition at 60 µM (platelet rich plasma; 5 min, 60 μM, 3 μM ADP + 10 μM serotonin, within 5 minutes) was 50%, the inhibition at 600 µM (platelet rich plasma; 5 min, 0.6 mM, 3 μM ADP + 10 μM serotonin, within 5 minutes) was 60% and the inhibition at 1000 µM (platelet rich plasma; 5 min, 1 mM, 3 μM ADP + 10 μM serotonin, within 5 minutes) was 79%.
Compound `O=C(c1ccc(F)cc1)C1CCN(CCn2c(=O)[nH]c3ccccc3c2=O)CC1` [Ketanserin, reference compound] has an inhibition at 100 µM (platelet rich plasma; 100 μM, positive control, same conditions, read-out: inhibitory effect on platelet aggregation) of 55%.
